Test results reported in PubChem BioAssay AID1963965 (Molecular Pharmacology Branch, DTP, NCI, 2024).
pIC50: −log10 of the molar value.

System: 996289-038-R-J1-PDC spheroid viability
Assay: Anticancer human tumor 996289-038-R-J1-PDC patient-derived colon adenocarcinoma cell line growth inhibition [PI3K]
Details: spheroids with HUVEC and MSC; for pIC50: curve of first compound; for viability, T/C: stronger effect = lower value; active means viability on the fitted dose curve at most 10% of control; inactive means the rest
Text: Combinatorial screen of targeted agents with the PI3K inhibitors inavolisib, alpelisib, duvelisib, and copanlisib in multi-cell type tumor spheroids
A high-throughput screen of multi-cell type tumor spheroids was designed to identify active combinations of targeted small molecules and PI3K pathway inhibitors. Complex spheroids include a stromal component modeled by human endothelial cells (HUVEC) and fibroblasts modeled by human mesenchymal stem cells (MSCs). The concentration ranges selected for each drug and investigational agent were based upon clinically achievable concentrations if the clinical Cmax of the agent was known.
Compounds. The drugs and investigational agents: inavolisib (NSC800729), alpelisib (NSC765974), duvelisib (NSC772469), copanlisib (NSC816437), ipatasertib (NSC767898), afuresertib (NSC778305), talazoparib (NSC767125), sapanisertib (NSC764658), selumetinib (NSC741078), tovorafenib (DAY101, NSC766906), vemurafenib (NSC761431), ravoxertinib (NSC781343), sotorasib (NSC818433), MRTX1133 (NSC 836407), abemaciclib (NSC 768073), palbociclib (NSC758247), venetoclax (NSC 766270), SY5609 (NSC837396), enzalutamide (NSC755605), and darolutamide (NSC825331), were obtained from the National Cancer Institute (NCI) Developmental Therapeutics Program Chemical Repository. The FDA-approved anticancer drug set is available from the NCI Developmental Therapeutics Program. […] The stock solutions were prepared in dimethyl sulfoxide (DMSO, Sigma-Aldrich, St. Louis, MO, cat. D2650) at 800-fold the tested concentration and stored at -70 degrees C prior to their use. All drugs and investigational agents were tested over a range starting from a high concentration at or near the clinical Cmax and decreasing in half-log increments. If the clinical Cmax for an agent had not been determined, the highest concentration tested was 10 microM.
Cell Culture. All cells were maintained in an incubator at 37 degrees C and 5% CO2 with 95% humidity. The PDC lines were cultured according to standard operating procedures established by the NCI PDMR (https://pdmr.cancer.gov/sops/default.htm). All PDCs were thawed and cultured in Matrigel-coated flasks prepared with a working solution of 1X Ham's F-12 nutrient mix, without supplementation (Invitrogen, Waltham, MA, cat. 11765054), 100 U/mL penicillin-streptomycin (Invitrogen, cat. 15140122), and 2.5% Matrigel (Corning Inc., Corning, NY, cat. 354248) for the first three passages. The 354836-022-R-J1-PDC, 475296-252-R-J1-PDC, and 997726-040-R-J2-PDC lines were cultured in 6A media, which includes advanced DMEM/F-12 (Thermo Fisher Scientific, cat. 12634028), 10 mM HEPES (Thermo Fisher Scientific, cat. 15630080), 1X GlutaMAX supplement (Thermo Fisher Scientific, cat. 35050061), 0.1 mg/mL primocin (InvivoGen, San Diego, CA, cat. ant-pm-2), 10% defined fetal bovine serum, heat inactivated (HyClone Laboratories Inc., Logan, UT, cat. SH30070.03HI), 50% L-WRN conditioned media (ATCC, cat. CRL-3276), 1.25 mM N-Acetyl-L-cysteine (Sigma-Aldrich, cat. A9165), 10 mM nicotinamide (Sigma-Aldrich, cat. N0636), 1X B-27 supplement (Thermo Fisher Scientific, cat. 17504044), 1X N-2 supplement (Thermo Fisher Scientific, cat. 17502048), and 10 microM Y-27632 dihydrochloride (Tocris Bioscience, Bristol, United Kingdom, cat. 1254). The 624824-186-R-J2-PDC line was cultured in 6C/Colon 1B media, which includes all 6A media components plus 50 ng/mL human EGF recombinant protein (Thermo Fisher Scientific, cat. PHG0311). […]

[1] = second compound 0.00316 µM, first compound 0.0316 µM
[2] = second compound 0.00316 µM, first compound 0.1 µM
[3] = second compound 0.01 µM, first compound 0.0316 µM
[4] = second compound 0.01 µM, first compound 0.1 µM
[5] = second compound 0.0316 µM, first compound 0.0316 µM
[6] = second compound 0.0316 µM, first compound 0.1 µM
[7] = second compound 0.1 µM, first compound 0.0316 µM
[8] = second compound 0.1 µM, first compound 0.1 µM
[9] = second compound 0.316 µM, first compound 0.0316 µM
[10] = second compound 0.316 µM, first compound 0.1 µM
[11] = second compound 1 µM, first compound 0.0316 µM
[12] = second compound 1 µM, first compound 0.1 µM
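Further: spheroids exposed to compounds for seven days before viability read.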
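Wherever viability, T/C is given: luminescence used as a proxy for viable cell amount; percent viability relative to DMSO vehicle control as 100%.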

CC(C)n1nc(-c2ccc3oc(N)nc3c2)c2c(N)ncnc21 + CC(Nc1ccc2c(c1)OCCn1cc(N3C(=O)OCC3C(F)F)nc1-2)C(N)=O
7.63: pIC50 (second compound 0.1 µM)
7.50: pIC50 (second compound 0.0316 µM)
7.34: pIC50 (second compound 0.01 µM)
8.07: pIC50 (second compound 0.316 µM)
8.26: pIC50 (second compound 1 µM)
7.29: pIC50 (second compound 0.00316 µM)
inactive: viability, T/C (second compound 0.00316 µM, first compound 0.000316 µM) 95.9% | viability, T/C (second compound 0.00316 µM, first compound 0.001 µM) 82.8% | viability, T/C (second compound 0.00316 µM, first compound 0.00316 µM) 90.5% | viability, T/C (second compound 0.00316 µM, first compound 0.01 µM) 81.1% | viability, T/C [1] 64.5% | viability, T/C [2] 29.7% | viability, T/C (second compound 0.01 µM, first compound 0.000316 µM) 94.8% | viability, T/C (second compound 0.01 µM, first compound 0.001 µM) 93.2% | viability, T/C (second compound 0.01 µM, first compound 0.00316 µM) 84.6% | viability, T/C (second compound 0.01 µM, first compound 0.01 µM) 75.9% | viability, T/C [3] 62.4% | viability, T/C [4] 28.5% | viability, T/C (second compound 0.0316 µM, first compound 0.000316 µM) 100% | viability, T/C (second compound 0.0316 µM, first compound 0.001 µM) 95.6% | viability, T/C (second compound 0.0316 µM, first compound 0.00316 µM) 79.1% | viability, T/C (second compound 0.0316 µM, first compound 0.01 µM) 63.2% | viability, T/C [5] 54.7% | viability, T/C [6] 29.1% | viability, T/C (second compound 0.1 µM, first compound 0.000316 µM) 85% | viability, T/C (second compound 0.1 µM, first compound 0.001 µM) 75.3% | viability, T/C (second compound 0.1 µM, first compound 0.00316 µM) 67.8% | viability, T/C (second compound 0.1 µM, first compound 0.01 µM) 62% | viability, T/C [7] 48.5% | viability, T/C [8] 23.4% | viability, T/C (second compound 0.316 µM, first compound 0.000316 µM) 64% | viability, T/C (second compound 0.316 µM, first compound 0.001 µM) 67.8% | viability, T/C (second compound 0.316 µM, first compound 0.00316 µM) 57.2% | viability, T/C (second compound 0.316 µM, first compound 0.01 µM) 43.9% | viability, T/C [9] 39.8% | viability, T/C [10] 17.1% | viability, T/C (second compound 1 µM, first compound 0.000316 µM) 52.3% | viability, T/C (second compound 1 µM, first compound 0.001 µM) 60.9% | viability, T/C (second compound 1 µM, first compound 0.00316 µM) 57.2% | viability, T/C (second compound 1 µM, first compound 0.01 µM) 41.6% | viability, T/C [11] 33.7% | viability, T/C [12] 16%

CCCS(=O)(=O)Nc1ccc(F)c(C(=O)c2c[nH]c3ncc(-c4ccc(Cl)cc4)cc23)c1F + CC(Nc1ccc2c(c1)OCCn1cc(N3C(=O)OCC3C(F)F)nc1-2)C(N)=O
5.29: pIC50 (second compound 0.1 µM)
5.24: pIC50 (second compound 0.0316 µM)
5.23: pIC50 (second compound 0.00316 µM)
5.78: pIC50 (second compound 1 µM)
5.21: pIC50 (second compound 0.01 µM)
inactive: viability, T/C [1] 108% | viability, T/C [2] 89.7% | viability, T/C (second compound 0.00316 µM, first compound 0.316 µM) 86.3% | viability, T/C (second compound 0.00316 µM, first compound 1 µM) 96.7% | viability, T/C (second compound 0.00316 µM, first compound 3.16 µM) 83.4% | viability, T/C (second compound 0.00316 µM, first compound 10 µM) 21.2% | viability, T/C [3] 101% | viability, T/C [4] 95.8% | viability, T/C (second compound 0.01 µM, first compound 0.316 µM) 97.8% | viability, T/C (second compound 0.01 µM, first compound 1 µM) 101% | viability, T/C (second compound 0.01 µM, first compound 3.16 µM) 88% | viability, T/C (second compound 0.01 µM, first compound 10 µM) 21.4% | viability, T/C [5] 95% | viability, T/C [6] 98.5% | viability, T/C (second compound 0.0316 µM, first compound 0.316 µM) 96.6% | viability, T/C (second compound 0.0316 µM, first compound 1 µM) 99.4% | viability, T/C (second compound 0.0316 µM, first compound 3.16 µM) 82.5% | viability, T/C (second compound 0.0316 µM, first compound 10 µM) 20.6% | viability, T/C [7] 72.4% | viability, T/C [8] 71.8% | viability, T/C (second compound 0.1 µM, first compound 0.316 µM) 74.6% | viability, T/C (second compound 0.1 µM, first compound 1 µM) 73.4% | viability, T/C (second compound 0.1 µM, first compound 3.16 µM) 75.8% | viability, T/C (second compound 0.1 µM, first compound 10 µM) 16.9% | viability, T/C [9] 74.8% | viability, T/C [10] 74.3% | viability, T/C (second compound 0.316 µM, first compound 0.316 µM) 76.6% | viability, T/C (second compound 0.316 µM, first compound 1 µM) 68% | viability, T/C (second compound 0.316 µM, first compound 3.16 µM) 65.1% | viability, T/C (second compound 0.316 µM, first compound 10 µM) 15.1% | viability, T/C [11] 63.1% | viability, T/C [12] 72.3% | viability, T/C (second compound 1 µM, first compound 0.316 µM) 61.7% | viability, T/C (second compound 1 µM, first compound 1 µM) 52.1% | viability, T/C (second compound 1 µM, first compound 3.16 µM) 44.9% | viability, T/C (second compound 1 µM, first compound 10 µM) 12.1%
5.36: pIC50 (second compound 0.316 µM)
